Measurements published in article PMC5826917, “A small molecule inhibitor of Nicotinamide N-methyltransferase for the treatment of metabolic disorders” (Scientific Reports, 2018).

Assays:
human NNMT = assay: Thermal shift assay, human NNMT; type: binding; settings: in presence of SAM, molar ratio enzyme:SAM:compound ~1:5:10
Protocol: Thermal shift assay experiments were carried out as described previously.

plasma MNA levels = tested on: plasma MNA levels
Protocol: Samples for MNA were analyzed employing a fit-for-purpose LC-MS/MS method. PE-Sciex API-4000 triple quadrupole (PerkinElmerSciex Instruments, Boston, MA) mass spectrometer was employed for this analysis. Samples (5 µL) were injected onto Kinetex HILIC (50 × 4.6 mm, 2.6 µm; Phenomenex, Torrance, CA, USA) column connected to Shimadzu VP (Shimadzu, Japan) LC system. The gradient mobile phase mixture of 0.2% formic acid and acetonitrile was delivered at a flow rate of 0.45 ml min-1 into the mass spectrometer electrospray ionization (ESI) chamber. Quantitation was achieved by MS/MS detection in positive ion mode for MNA and internal standard (d4–MNA). Detection of the ions was performed in the multiple reaction monitoring (MRM) mode, monitoring the transition of the m/z 137 precursor ion to the m/z 92 product ion for MNA and m/z 141 precursor ion to the m/z 84 product ion for d4-MNA (internal standard).
A simple protein precipitation extraction method was followed for extraction of N-methylnicotinamide from plasma and various tissue homogenate samples. The tissue samples were homogenized with 1:3 proportions of phosphate buffer saline (PBS) and this homogenate was used for N-Methylnicotinamide determinations. […] The supernatant was separated and transferred to pre-labeled HPLC vials and analyzed by LC-MS/MS system.

[1] = target: adrenergic, alpha-1A-, receptor (ADRA1A) (Homo sapiens, UniProt P35348); assay: Selectivity panel: ADRA1A; type: cell-based
Protocol: (§1) Supplement 41598_2018_22081_MOESM1_ESM.docx, table 2: Supplementary table 2: Selectivity profile of JBSNF-000088 (at 10 µM) vs a panel of 34 receptors, channels and enzymes. | column: E% (agonistic); I% (antagonistic or inhibitory)

[2] = target: Adrenoreceptor beta 2 (ADRB2) (Homo sapiens, UniProt P07550); assay: Selectivity panel: ADRB2; type: cell-based
[3] = target: Norepinephrin (Noradrenalin) Transporter (Homo sapiens, UniProt P23975); assay: Selectivity panel: norepinephrine transporter; type: binding; settings: read-out: I% (antagonistic or inhibitory), Norepinephrin (Noradrenalin) Transporter
Protocol: Supplement 41598_2018_22081_MOESM1_ESM.docx, table 2: Supplementary table 2: Selectivity profile of JBSNF-000088 (at 10 µM) vs a panel of 34 receptors, channels and enzymes. | column: I% (antagonistic or inhibitory)

[4] = target: Opioid Receptor mu (OPRM1) (Homo sapiens, UniProt P35372); assay: Selectivity panel: OPRM1; type: cell-based
Protocol: as §1

Sequence of adrenergic, alpha-1A-, receptor (ADRA1A) (P35348 whole entry): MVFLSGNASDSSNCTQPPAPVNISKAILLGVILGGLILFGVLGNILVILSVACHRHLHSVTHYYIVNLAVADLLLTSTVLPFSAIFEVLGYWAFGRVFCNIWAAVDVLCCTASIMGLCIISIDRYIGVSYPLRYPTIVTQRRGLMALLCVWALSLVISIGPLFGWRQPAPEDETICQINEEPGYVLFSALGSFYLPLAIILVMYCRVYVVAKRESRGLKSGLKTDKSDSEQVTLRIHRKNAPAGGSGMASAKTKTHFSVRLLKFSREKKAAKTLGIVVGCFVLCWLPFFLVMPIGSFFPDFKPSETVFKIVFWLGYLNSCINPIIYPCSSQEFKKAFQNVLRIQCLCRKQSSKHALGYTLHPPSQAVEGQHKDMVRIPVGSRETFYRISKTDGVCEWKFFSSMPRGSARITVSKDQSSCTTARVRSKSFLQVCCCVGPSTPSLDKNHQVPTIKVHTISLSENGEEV
Sequence of Opioid Receptor mu (OPRM1) (P35372 whole entry): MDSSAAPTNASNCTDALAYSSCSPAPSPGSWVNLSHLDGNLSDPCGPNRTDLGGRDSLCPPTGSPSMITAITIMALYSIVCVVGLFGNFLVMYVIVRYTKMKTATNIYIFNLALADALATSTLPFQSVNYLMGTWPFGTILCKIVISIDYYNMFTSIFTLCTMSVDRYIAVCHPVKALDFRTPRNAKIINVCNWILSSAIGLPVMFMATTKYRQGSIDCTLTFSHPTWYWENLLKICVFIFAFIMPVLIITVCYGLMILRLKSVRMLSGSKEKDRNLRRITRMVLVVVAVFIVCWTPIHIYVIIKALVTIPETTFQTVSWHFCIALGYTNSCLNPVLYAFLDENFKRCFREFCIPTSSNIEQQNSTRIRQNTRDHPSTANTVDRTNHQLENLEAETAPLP
Sequence of Adrenoreceptor beta 2 (ADRB2) (P07550 whole entry): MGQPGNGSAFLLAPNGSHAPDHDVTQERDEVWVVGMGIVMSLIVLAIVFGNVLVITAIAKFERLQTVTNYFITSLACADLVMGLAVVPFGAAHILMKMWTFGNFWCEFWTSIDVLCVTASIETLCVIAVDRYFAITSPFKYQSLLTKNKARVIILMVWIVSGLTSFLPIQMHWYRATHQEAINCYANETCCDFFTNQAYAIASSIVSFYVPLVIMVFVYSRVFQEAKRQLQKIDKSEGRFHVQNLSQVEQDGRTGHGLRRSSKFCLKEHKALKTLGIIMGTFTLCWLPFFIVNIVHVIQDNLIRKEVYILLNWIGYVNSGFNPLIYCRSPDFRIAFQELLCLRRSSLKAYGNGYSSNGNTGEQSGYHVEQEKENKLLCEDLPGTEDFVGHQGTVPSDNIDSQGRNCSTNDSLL
Sequence of Norepinephrin (Noradrenalin) Transporter (P23975 whole entry): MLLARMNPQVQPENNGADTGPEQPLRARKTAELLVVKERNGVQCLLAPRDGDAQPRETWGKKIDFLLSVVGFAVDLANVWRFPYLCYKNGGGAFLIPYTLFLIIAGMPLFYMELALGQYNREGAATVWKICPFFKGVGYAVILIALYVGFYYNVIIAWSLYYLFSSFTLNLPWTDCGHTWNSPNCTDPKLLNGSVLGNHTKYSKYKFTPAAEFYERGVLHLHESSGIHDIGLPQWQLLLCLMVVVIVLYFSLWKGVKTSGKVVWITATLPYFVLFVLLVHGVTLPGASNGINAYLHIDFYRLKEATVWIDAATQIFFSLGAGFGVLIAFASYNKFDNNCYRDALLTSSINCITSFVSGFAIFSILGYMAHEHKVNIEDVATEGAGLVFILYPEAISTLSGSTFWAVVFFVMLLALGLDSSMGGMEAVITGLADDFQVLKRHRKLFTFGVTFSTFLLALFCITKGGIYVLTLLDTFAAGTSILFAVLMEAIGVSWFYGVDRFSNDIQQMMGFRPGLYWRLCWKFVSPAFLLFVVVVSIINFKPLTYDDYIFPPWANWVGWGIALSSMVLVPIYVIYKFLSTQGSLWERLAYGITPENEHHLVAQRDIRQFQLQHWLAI

COc1ccc(C(N)=O)cn1 [JBSNF-000088, 6-methoxynicotinamide]
shift in melting temperature (Tm), human NNMT (human NNMT): 5 K
plasma MNA levels (plasma MNA levels; 50 mg kg^−1 orally, C57BL/6 mice, till 4 h post dosing): Significant reductions
reduction of plasma MNA levels (plasma MNA levels; Discussion statement): ~ 50%
E% (agonistic), ADRA1A ([1]; 10 µM): -2%
inhibition at 10 µM ([1]; read-out: I% (antagonistic or inhibitory), ADRA1A): -3%
E% (agonistic), ADRB2 ([2]; 10 µM): 1%
inhibition at 10 µM ([2]; read-out: I% (antagonistic or inhibitory), ADRB2): 1%
inhibition at 10 µM [3]: 9%
E% (agonistic), OPRM1 ([4]; 10 µM): -1%
inhibition at 10 µM ([4]; OPRM1, read-out: I% (antagonistic or inhibitory), OPRM1): -8%
